Entries after “also recorded” stand apart in the source; their conditions may differ.
How the values were obtained:
Idua-W402X mice = assay: Tissue GAG levels in the nonsense-mutation Hurler mouse model, Compound 1 given in chow; assay type: in vivo
Method: Compound 1 was administered to Idua-W402X mice by mixing Compound 1 into solid mouse chow at concentrations of 0.1%. 0.3% or 1.0% (w/w) for 2 weeks, after which time GAG levels in the brain, spleen, heart, liver, lung, and kidney tissues were quantified.
The effect of Compound 1 on iduronidase activity as a result of readthrough of the premature stop codon present in the Idua gene (Idua-W392X) was determined in a nonsense-mutation containing mouse model of Hurler syndrome, referred to as the Idua-W392X Hurler mouse. The study initiated when mice were 3-4 weeks old.
Homozygous Idua-W392X mice were offered food prepared with or without Compound 1 for 14 days. Wild type animals received chow without Compound 1 for 14 days. Assay results were obtained from tissues isolated from wild type (+/+) and homozygous Idua-W392X (−/−) mice after 14 days of treatment. Briefly, Compound 1 was dissolved in water, mixed into pulverized chow, shaped into pellets and dried.
Following the 14-day treatment period, mice were anesthetized using isoflurane and transcardially perfused with 20 mL saline prior to tissue collection. At the time of sacrifice, brain, liver, heart, lung, spleen and kidney were collected and frozen at −80° C. until used for determination of GAG levels.
(§1) GAG levels were determined using the Blyscan Sulfated GAG Assay (Biocolor Ltd, UK). Briefly, 50 μL of each lysate was added to 500 μL of the Blyscan Dye Reagent and mixed by vortexing. The mixture was incubated at room temperature for 30 minutes, vortexing every 5 minutes. The dye-bound GAGs were isolated from the solution by centrifuging for 10 minutes at 10,000 g at room temperature. A total of 500 μL of the Blyscan Dye Dissociation Reagent was added to the […] from each sample. The samples were vortexed and incubated for 10 minute at room temperature. The entire volume of each sample was then placed into a cuvette and the absorbance was measured at a wavelength of 656 nm. The total amount of sulfated GAGs precipitated from each sample was determined from a standard curve using chondroitin 4-sulfate. The total protein concentration in each lysate was determined using the Bio-Rad protein assay with a standard curve generated using bovine serum albumin.

[1] = Weight gain and food intake of mice given Compound 1 in chow; assay type: in vivo, C57BL/6J mice; conditions: 1.0% (w/w) in chow
Source text: Mice receiving food containing 1.0% (w/w) Compound 1 are 45% less food than mice receiving the control chow. However, a reduction in weight gain would not be expected to elicit a reduction in tissue GAG levels in the pharmacology studies.

[2] = test system: Mouse embryonic fibroblasts (MEFs); assay: Cell toxicity/stress (visual inspection) and total protein concentration in MEFs; assay type: cell-based; conditions: 24 hours
Method: The greatest reduction of GAG levels occurred at 10 μg/mL with decreased reduction of GAG levels at concentrations above 20 μg/mL. […] Cell viability was determined by quantifying the total protein concentration in each lysate.
The effect of Compound 1 on iduronidase activity as a result of readthrough of the premature stop codon present in the Idua gene was determined in an in vitro GAG accumulation assay. This assay utilized primary fibroblasts isolated from 13 day-old +/+ and −/− Idua-W392X mouse embryos. Mouse embryonic fibroblasts (MEFs) were isolated from 13 day-old wild type and homozygous Idua-W392X mouse embryo littermates. The cells were grown in Dulbecco's Modified Eagle Media (DMEM) containing 10% bovine calf serum (BCS)+1% non-essential amino acids+1% penicillin/streptomycin at 37° C. and 5% CO2. The MEFs were isolated and grown on collagen-coated plates until ˜50% confluent. MEFs from Idua-W392X mice were treated with increasing concentrations of Compound 1 dissolved in DMSO to a final concentration of 0.2%. Cells were incubated with Compound 1 for 24 hours. Controls included untreated wild type and untreated Idua-W392X MEFs. […]
The total protein concentration in each lysate was determined using the Bio-Rad protein assay with a standard curve generated using bovine serum albumin.

[3] = test system: Mouse embryonic fibroblasts (MEFs) isolated from the Idua-W402X mice; assay: GAG levels in cultured mouse embryonic fibroblasts from the nmHurler mouse model (Blyscan Sulfated GAG Assay); assay type: cell-based; conditions: 24 hours
Method: nmMPS I is caused by the lack of the lysosomal enzyme IDUA and results in the accumulation of GAGs in tissues. Therefore, GAG levels can be monitored to assess the efficacy of treatment for this disease. In the nmHurler mouse model of nmMPS I, the Idua-W402X Hurler mouse IDUA gene (TGG→TAG) harbors a W392X mutation in exon 9, corresponding to the W402X mutation found in approximately 30 to 50% of nmMPS I patients. Mouse embryonic fibroblasts (MEFs) isolated from the Idua-W402X mice were treated with Compound 1 at concentrations of 0, 1, 2.5, 5, 10, 20, and 40 μg/mL for 24 hours in 0.2% DMSO. After 24 hours, cells were lysed and the levels of GAGs were quantified.
The effect of Compound 1 on iduronidase activity as a result of readthrough of the premature stop codon present in the Idua gene was determined in an in vitro GAG accumulation assay. This assay utilized primary fibroblasts isolated from 13 day-old +/+ and −/− Idua-W392X mouse embryos. Mouse embryonic fibroblasts (MEFs) were isolated from 13 day-old wild type and homozygous Idua-W392X mouse embryo littermates. The cells were grown in Dulbecco's Modified Eagle Media (DMEM) containing 10% bovine calf serum (BCS)+1% non-essential amino acids+1% penicillin/streptomycin at 37° C. and 5% CO2. The MEFs were isolated and grown on collagen-coated plates until ˜50% confluent. MEFs from Idua-W392X mice were treated with increasing concentrations of Compound 1 dissolved in DMSO to a final concentration of 0.2%. Cells were incubated with Compound 1 for 24 hours. Controls included untreated wild type and untreated Idua-W392X MEFs. After 24 hours, cells were visually inspected for signs of cytotoxicity and cell stress and then lysed using M-Per Protein Reagent (Pierce) containing protease inhibitors (Complete-mini; Roche) per the manufacturer's instructions. The supernatant was used to determine glycosaminoglycan (GAG) levels, as described below.
as §1, with “μl” for “μL”, “temperature.” for “temperature. A total of”, “The samples were vortexed and incubated for 10 minute at room temperature.” left out

[4] = Idua-W402X (W392X) mice, 0.1%, 0.3%, 1.0% (w/w) chow, 14 days
[5] = Idua-W402X mice, 0.1% (w/w) in chow, 2 weeks
[6] = Idua-W402X mice, 0.3% (w/w) in chow, 2 weeks
[7] = Idua-W402X mice, 1.0% (w/w) in chow, 2 weeks

Structure (SMILES): O=C(O)c1cccc(-c2noc(-c3ccccc3F)n2)c1 [Compound 1, 3-[5-(2-fluoro-phenyl)-[1,2,4]oxadiazol-3-yl]-benzoic acid]
- Nonsense suppression activity as determined by decreased GAG levels in multiple tissues (Idua-W402X mice; Idua-W392X mice, chow, 14 days): concentration-dependent nonsense suppression activity
- Compound 1 concentration in chow giving maximal reduction of GAG levels in brain, spleen, heart and lung (Idua-W402X mice; [4]): 0.1%
- Compound 1 concentration in chow giving maximal reduction of liver GAG levels (Idua-W402X mice; [4]): 0.3%
- Effect on GAG levels in the kidney (Idua-W402X mice; Idua-W402X (W392X) mice, any dose (0.1-1.0% chow)): No statistically significant effect
- Reduction in Excess GAG Levels, Brain (Idua-W402X mice; [5]): 70%
- Reduction in Excess GAG Levels, Heart (Idua-W402X mice; [5]): 36%
- Reduction in Excess GAG Levels, Kidney (Idua-W402X mice; [5]): 0%
- Reduction in Excess GAG Levels, Liver (Idua-W402X mice; [5]): 0%
- Reduction in Excess GAG Levels, Lung (Idua-W402X mice; [5]): 19%
- Reduction in Excess GAG Levels, Spleen (Idua-W402X mice; [5]): 78%
- GAG levels achieved in the brain and spleen (Idua-W402X mice; Idua-W402X mice, 0.1% in chow, 2 weeks): near normal GAG levels
- Reduction in Excess GAG Levels, Brain (Idua-W402X mice; [6]): 37%
- Reduction in Excess GAG Levels, Heart (Idua-W402X mice; [6]): 0%
- Reduction in Excess GAG Levels, Kidney (Idua-W402X mice; [6]): 0%
- Reduction in Excess GAG Levels, Liver (Idua-W402X mice; [6]): 53%
- Reduction in Excess GAG Levels, Lung (Idua-W402X mice; [6]): 11%
- Reduction in Excess GAG Levels, Spleen (Idua-W402X mice; [6]): 57%
- Reduction in Excess GAG Levels, Brain (Idua-W402X mice; [7]): 28%
- Reduction in Excess GAG Levels, Heart (Idua-W402X mice; [7]): 0%
- Reduction in Excess GAG Levels, Kidney (Idua-W402X mice; [7]): 0%
- Reduction in Excess GAG Levels, Liver (Idua-W402X mice; [7]): 17%
- Reduction in Excess GAG Levels, Lung (Idua-W402X mice; [7]): 14%
- Reduction in Excess GAG Levels, Spleen (Idua-W402X mice; [7]): 11%
- Reduction of food intake versus control chow [1]: 45%
- Weight gain versus 0.1%, 0.3% doses or vehicle ([1]; satellite PK study and Idua-W402X pharmacology studies): did not gain as much weight
- Changes in total protein concentration (cell viability) ([2]; 0 to 40 μg/mL): No notable changes
- Signs of cellular toxicity or stress (cells rounding up or floating, changes in cell density) ([2]; up to the highest concentration tested (40 μg/mL)): No signs of cellular toxicity or stress; also recorded: No signs of cell toxicity or stress
- Dose-response relationship for GAG reduction ([3]; Idua-W392X MEFs): U shaped dose-response relationship
- Nonsense suppression activity as determined by GAG levels ([3]; Idua-W392X MEFs): concentration dependent nonsense suppression activity
- Concentration giving the greatest reduction of GAG levels ([3]; Idua-W402X (W392X) MEFs, 1-40 μg/mL tested): 10 µg/mL
- Concentrations with decreased reduction of GAG levels ([3]; Idua-W402X MEFs): above 20 μg/mL

From US20170196842A1, “METHODS OF TREATMENT USING A 1,2,4-OXADIAZOLE BENZOIC ACID” (PTC Therapeutics, Inc., priority 2014, published 2017)
